Assays:
Pan02 cells [1] = assay: Wound healing assay, Pan02; assay type: cell-based, murine; conditions: 0.1 μM PGE2, 24 h, dose-dependent
Experimental: (§1) The wound healing assay was performed according to a standard protocol as described before. Briefly, Pan02 and BxPC-3 cells were grown as a confluent monolayer in 12-well plates (Corning, Corning, NY, USA) overnight and starved with serum-free medium for 6 h. The monolayer cells were disrupted with a P100 micropipette tip (JET BIOFIL, Guangzhou, China) and rinsed with PBS to remove detached cells. Medium containing different concentrations of compounds was added subsequently. After 24 h, treated cells were stained with 2 μM calcein-AM (Yeasen, Shanghai, China) for 20 min and washed with PBS. Photos were taken of the area in the scraped zone of each dish at 100× magnification by using an inverted fluorescent microscope (OLYMPUS, Tokyo, Japan).

BxPC-3 cells [2] = assay: Transwell migration assay, BxPC-3; assay type: cell-based, human; conditions: BxPC-3; with PGE2; 24 h
Experimental: (§2) The transwell assay was conducted as described previously, using 8 μm pore transwell inserts (Corning, NY, USA). Cells were suspended in serum-free DMEM and seeded into upper chambers at appropriate density. The bottom chamber was filled with DMEM supplemented with 10% fetal bovine serum and indicated concentrations of PGE2. The compounds were added in both upper and bottom chambers. […] Migrated cells were counted and quantified using image J.

human EP2 = target: T1, human EP2 (Homo sapiens, UniProt P43116); assay: Calcium flux assay, human EP2; assay type: cell-based; conditions: CHO-Gα16 cells, PGE2 (EC80)
T1 construct: expressed in transfected cells; host or cells: CHO-Gα16
T1 sequence (P43116 whole entry): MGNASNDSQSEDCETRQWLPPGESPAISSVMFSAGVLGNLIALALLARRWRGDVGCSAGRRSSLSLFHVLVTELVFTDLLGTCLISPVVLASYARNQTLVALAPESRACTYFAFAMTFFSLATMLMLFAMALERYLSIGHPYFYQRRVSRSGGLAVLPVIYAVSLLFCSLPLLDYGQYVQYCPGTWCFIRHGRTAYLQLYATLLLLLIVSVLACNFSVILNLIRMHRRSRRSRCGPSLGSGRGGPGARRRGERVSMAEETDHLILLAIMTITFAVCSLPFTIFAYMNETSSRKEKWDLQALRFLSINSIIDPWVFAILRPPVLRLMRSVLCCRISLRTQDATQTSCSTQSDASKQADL
Experimental: (§3) Calcium flux assay was conducted as described in our previous study. Briefly, CHO-Gα16 cells were transfected, respectively, with human EP1, human EP2, human EP3, human EP4, monkey EP4, mouse EP4 and rat EP4 overexpression constructs using lipofectamine 2000 according to the manufacturer’s manual. Cells were then seeded into a 96-well black plate with a cell density of 2 × 10^4 cells/100 μL per well for a 16-h culture. On the next day, cells were incubated for 45 min with reagents (100 μL/well) of Calcium-5 Assay Kit (Molecular Devices, San Jose, CA, USA). Then, cells were pre-treated with indicated concentrations of L001 for 15 min and stimulated with PGE2 (EC80). The calcium flux was detected subsequently by a Flexstation® 3 Multi-Mode Microplate Reader (Molecular Devices, San Jose, CA, USA).

rat EP4 = target: T2, rat EP4 (Rattus norvegicus, UniProt P43114); assay: Calcium flux assay, rat EP4; assay type: cell-based
T2 construct: expressed in transfected cells; host or cells: CHO-Gα16
T2 sequence (P43114 whole entry): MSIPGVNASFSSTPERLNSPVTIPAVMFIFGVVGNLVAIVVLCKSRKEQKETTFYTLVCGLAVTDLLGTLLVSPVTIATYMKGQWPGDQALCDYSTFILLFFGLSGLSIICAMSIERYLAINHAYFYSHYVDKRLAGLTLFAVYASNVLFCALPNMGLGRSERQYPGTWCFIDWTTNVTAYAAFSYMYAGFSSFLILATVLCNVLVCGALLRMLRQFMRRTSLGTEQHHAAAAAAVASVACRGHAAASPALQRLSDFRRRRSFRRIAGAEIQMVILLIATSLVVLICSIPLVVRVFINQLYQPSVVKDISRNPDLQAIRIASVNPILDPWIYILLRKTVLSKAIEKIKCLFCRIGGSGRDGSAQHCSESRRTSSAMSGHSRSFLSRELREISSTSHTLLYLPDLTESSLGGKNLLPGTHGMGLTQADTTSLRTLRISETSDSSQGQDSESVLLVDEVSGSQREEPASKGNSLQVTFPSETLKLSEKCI
Experimental: as §3

BxPC-3 cells [3] = assay: Cell viability assay (MTS), BxPC-3; assay type: cell-based, human; conditions: 72 h
Experimental: (§4) Cells were seeded into 96-well plates and treated with varied concentrations of compounds for 72 hrs. Cell viabilities were determined by using MTS reagent (Promega, Madison, WI, USA) according to the manufacturer’s manual. Spectrophotometric absorbance at 490 nm was measured by Flexstation® 3 Multi-Mode Microplate Reader (Molecular Devices, San Jose, CA, USA). The experiments were independently repeated three times.

BxPC-3 cells [4] = assay: Wound healing assay, BxPC-3; assay type: cell-based, human; conditions: 0.1 μM PGE2, 24 h, dose-dependent
Experimental: as §1

BxPC-3 cells [5] = assay: 3D Matrigel tumor spheroid invasion assay, BxPC-3; assay type: cell-based, human; conditions: 0.1 μM PGE2, day 7
Experimental: The 3D Matrigel invasion assay was performed as described. Pan02 and BxPC-3 cells were plated above a layer of Matrigel (ThermoFisher, Shanghai, China) and covered with growth medium containing 10% Matrigel. The culture medium containing different concentrations of compounds was changed every two days. After 7 days, cells with stellate invasive structure were photographed (OLYMPUS, Tokyo, Japan).

Pan02 cells [6] = assay: Cell viability assay (MTS), Pan02; assay type: cell-based, murine; conditions: 72 h
Experimental: as §4

[7] = system: YAP, CYR61, CTGF, Vimentin, Snail, E-cadherin mRNA in BxPC-3 cells; assay: Real-time qPCR of YAP, YAP target genes and EMT markers, BxPC-3; assay type: cell-based, human; conditions: 12 h
Experimental: Total RNA was extracted from cells using TRIzol reagent. The cDNA was synthesized by RT-PCR kit (Vazyme Biotech, Nanjing, China). The band intensity was determined by the gel image analysis system (Bio-Rad, Hercules, CA, USA). SYBR Green-based qPCR (Yeason, Shanghai, China) was conducted subsequently. Relative mRNA levels of target genes were normalized with β-actin. The sequences of primers are listed in Supplementary Table S1. The raw data are listed in Supplementary Table S2.

Pan02 cells [8] = assay: Transwell migration assay, Pan02; assay type: cell-based, murine; conditions: Pan02; with PGE2; 24 h
Experimental: as §2

[9] = system: YAP/TEAD reporter in Pan02 cells; assay: TEAD-driven luciferase reporter assay, Pan02; assay type: cell-based, murine; conditions: 16 h
Experimental: CHO-K1 cells or pancreatic cancer cell lines were transfected with a cAMP responsive element (CRE) reporter or TEAD reporter using lipofectamine 2000 according to the manufacturer’s manual. […] Then, cells were lysed and luciferase activities were determined using Dual-Luciferase Reporter Assay Kit (Promega, Madison, WI, USA).

[10] = system: Pan02-Luc hepatic metastasis; assay: Pan02-Luc liver metastasis model with bioluminescent imaging; assay type: in vivo, C57BL/6 mice
Experimental: Male C57/BL6 mice (6–8 weeks) were obtained from the National Rodent Laboratory Animal Resources (NRLAR, Shanghai, China). All mice were housed according to Institutional Animal Care and Use Committee guidelines and under a protocol approved by East China Normal University Ethics Committee with respect to animal care and welfare assurance. The bioluminescent liver metastasis mouse model was established as described previously. In brief, 2 × 10^6 Pan02/luc cells suspended in 50 μL of PBS were injected into mice spleen. […] Tumor metastasis was monitored by using an in vivo imaging system following intraperitoneal injection with D-Luciferin (2 mg per mouse; Promega). Bioluminescence intensity was recorded every seven days by a Xenogen IVIS-200 Optical in vivo imaging system (PerkinElmer; Waltham, MA, USA) for up to 4 weeks. The mouse body weight was measured every other day. Survival curve analysis was performed using GraphPad Prism 7.
Mouse liver tissues were harvested, fixed, paraffin embedded, and sectioned (8 μm). The tissues were permeabilized with 0.25% TritonX-100 at room temperature for 15 min, blocked with 1% FBS in PBS, and followed by incubation in primary antibodies at 4 °C overnight: rabbit anti-YAP (1:50 dilution, ab205270, abcam). The sections were then washed with PBS, incubated with anti-rabbit secondary antibody for 2 h and dyed with DAPI (10 μg/mL in PBS) for 5 min at room temperature. Slides were mounted using DPX Mountant (Electron Microscopy Sciences) and images were obtained by inverted fluorescence microscope (Olympus, Tokyo, Japan).

C[C@H](NC(=O)c1c(Cc2cccc(C(F)(F)F)c2)sc2c1CCOC2)c1ccc(C(=O)O)cc1 [L001]
PGE2-triggered wound closure (Pan02 cells [1]): significantly blocked
migrated cells in the lower layer of the transwell (BxPC-3 cells [2]): reduced migrated cells
IC50 (human EP2): > 10000 nM
IC50 (rat EP4): 14.2 ± 0.88 nM
cell viability (BxPC-3 cells [3]): did not affect the cell viabilities
PGE2-triggered wound closure (BxPC-3 cells [4]): significantly blocked
spheroid invasion morphology (filopodium-like protrusions) (BxPC-3 cells [5]): completely retracted PGE2-induced membrane surface projections
cell viability (Pan02 cells [6]): did not affect the cell viabilities
PGE2-aroused upregulation of mRNA levels of Vimentin and Snail [7]: remarkably abrogated
PGE2-mediated downregulation of E-cadherin's expression [7]: reversed
mRNA expression levels of YAP, CYR61 and CTGF induced by PGE2, in comparison with E7046 ([7]; PGE2 0.1 μM, compound 10 μM): stronger reductions
migrated cells in the lower layer of the transwell (Pan02 cells [8]): reduced migrated cells
PGE2-driven YAP/TEAD reporter activity [9]: remarkably suppressed
YAP protein level in hepatic metastasis loci ([10]; IHC, L001 75 mg/kg p.o. daily): decreased protein levels of YAP
H&E imaging of liver sections ([10]; L001 or E7046 75 mg/kg p.o. daily, gemcitabine 25 mg/kg i.p. twice a week): remarkably reduced metastatic clusters
reduction of Pan02 cell liver metastases (bioluminescence of separated livers) ([10]; L001 or E7046 75 mg/kg p.o. daily, gemcitabine 25 mg/kg i.p. twice a week, n = 6): 85.14%
reduction in median luminescence signal compared with vehicle control group ([10]; day 28, L001 or E7046 75 mg/kg p.o. daily, gemcitabine 25 mg/kg i.p. twice a week, n = 6): 80.57%
median survival ([10]; n = 9, L001 or E7046 75 mg/kg p.o. daily, gemcitabine 25 mg/kg i.p. twice a week, control 34 days): 42 days
mRNA expressions of Vimentin and Snail in hepatic metastasis loci ([10]; qPCR, L001 75 mg/kg p.o. daily): reduced the mRNA expressions
